Experiments:
[1] = system: SNU-C1 (Colorectal Carcinoma); experiment: Bliss excess, mean over the matrix (fraction); higher = more synergy
Outline: (§1)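 After 24 hours at 37°C and 5% CO2 in 1536-well plates, cells in DMEM/F12 or RPMI plus 10% FBS received two-drug dose matrices for 72 hours. Viability came from CellTiter-Glo 2.0 luminescence and was scaled as inhibition, anchored at 0 by vehicle wells and at 1 by blank wells. Combination Emax is taken as the second-highest inhibition in the matrix, and Bliss excess as the observed combination effect less EA + EB − EA·EB, with EA and EB the single-agent effects.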

[2] = system: NCI-N87 (Gastric Carcinoma); experiment: as above
Outline: as §1

[3] = system: HSC-2 (Oral Cavity Carcinoma); experiment: as above
Outline: as §1

NB7 (Neuroblastoma) [4] = experiment: as above
Outline: as §1

[5] = system: SCC-9 (Oral Cavity Carcinoma); experiment: as above
Outline: as §1

[6] = system: KINGS-1 (Low Grade Glioma); experiment: as above
Outline: as §1

[7] = system: OCUB-M (Breast Carcinoma); experiment: as above
Outline: as §1

EW-3 (Ewing's Sarcoma) [8] = experiment: as above
Outline: as §1

[9] = system: OCUM-1 (Gastric Carcinoma); experiment: as above
Outline: as §1

[10] = system: TGBC11TKB (Gastric Carcinoma); experiment: as above
Outline: as §1

GI-1 (Glioblastoma) [11] = experiment: as above
Outline: as §1

[12] = system: JHH-7 (Hepatocellular Carcinoma); experiment: as above
Outline: as §1

[13] = system: VMRC-LCD (Lung Adenocarcinoma); experiment: as above
Outline: as §1

[14] = system: H-EMC-SS (Chondrosarcoma); experiment: as above
Outline: as §1

[15] = system: LC4-1 (B-Lymphoblastic Leukemia); experiment: as above
Outline: as §1

[16] = system: SNU-C1 (Colorectal Carcinoma); experiment: combination Emax (second highest fraction inhibited in the dose matrix, 72 h); higher = more inhibition; extreme values may be limits of the assay
Outline: as §1

[17] = system: NCI-N87 (Gastric Carcinoma); experiment: as above
Outline: as §1

[18] = system: HSC-2 (Oral Cavity Carcinoma); experiment: as above
Outline: as §1

NB7 (Neuroblastoma) [19] = experiment: as above
Outline: as §1

[20] = system: SCC-9 (Oral Cavity Carcinoma); experiment: as above
Outline: as §1

[21] = system: KINGS-1 (Low Grade Glioma); experiment: as above
Outline: as §1

[22] = system: OCUB-M (Breast Carcinoma); experiment: as above
Outline: as §1

EW-3 (Ewing's Sarcoma) [23] = experiment: as above
Outline: as §1

[24] = system: OCUM-1 (Gastric Carcinoma); experiment: as above
Outline: as §1

[25] = system: TGBC11TKB (Gastric Carcinoma); experiment: as above
Outline: as §1

GI-1 (Glioblastoma) [26] = experiment: as above
Outline: as §1

[27] = system: JHH-7 (Hepatocellular Carcinoma); experiment: as above
Outline: as §1

[28] = system: VMRC-LCD (Lung Adenocarcinoma); experiment: as above
Outline: as §1

[29] = system: H-EMC-SS (Chondrosarcoma); experiment: as above
Outline: as §1

[30] = system: LC4-1 (B-Lymphoblastic Leukemia); experiment: as above
Outline: as §1
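For Bliss excess, mean over the matrix in this document: after 72 h of two-drug dosing.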

SMILES | Bliss excess [1] | Bliss excess [2] | Bliss excess [3] | Bliss excess (NB7 (Neuroblastoma) [4]) | Bliss excess [5] | Bliss excess [6] | Bliss excess [7] | Bliss excess (EW-3 (Ewing's Sarcoma) [8]) | Bliss excess [9] | Bliss excess [10] | Bliss excess (GI-1 (Glioblastoma) [11]) | Bliss excess [12] | Bliss excess [13] | Bliss excess [14] | Bliss excess [15] | combination Emax [16] | combination Emax [17] | combination Emax [18] | combination Emax (NB7 (Neuroblastoma) [19]) | combination Emax [20] | combination Emax [21] | combination Emax [22] | combination Emax (EW-3 (Ewing's Sarcoma) [23]) | combination Emax [24] | combination Emax [25] | combination Emax (GI-1 (Glioblastoma) [26]) | combination Emax [27] | combination Emax [28] | combination Emax [29] | combination Emax [30]
CN(CCO)CC[C@H](CSc1ccccc1)Nc1ccc(S(=O)(=O)NC(=O)c2ccc(N3CCC([C@@H](O)c4ccccc4-c4ccc(Cl)cc4)CC3)cc2)cc1S(=O)(=O)C(F)(F)F [AZD4320] + Nc1ccn([C@@H]2O[C@H](CO)[C@@H](O)C2(F)F)c(=O)n1 [Gemcitabine] (first compound max 1 µM, 7x7, partner max 0.3 µM) | -0.0482 | -0.0058 | 0.0613 | -0.0153 | -0.0247 | -0.0068 | 0.0471 | -0.0522 | 0.0262 | 0.0225 | 0.112 | -0.033 | -0.0095 | 0.0342 | 0.0156 | 0.533 | 0.822 | 1 | 0.556 | 0.539 | 0.502 | 0.812 | 0.91 | 0.905 | 0.882 | 0.936 | 0.284 | 0.288 | 0.832 | 1
Cc1c2c(nn1C)CSCc1cc(n(C)n1)CSc1cc(c3ccccc3c1)OCCCc1c(C(=O)O)n(C)c3c-2c(Cl)ccc13 [AZD5991] + CC(=O)O[C@H]1C(=O)[C@@]2(C)[C@H]([C@H](OC(=O)c3ccccc3)[C@]3(O)C[C@H](OC(=O)[C@H](O)[C@@H](NC(=O)c4ccccc4)c4ccccc4)C(C)=C1C3(C)C)[C@]1(OC(C)=O)CO[C@@H]1C[C@@H]2O [Paclitaxel] (first compound max 1 µM, 7x7, partner max 3 µM) | -0.024 | -0.0041 | -0.0534 | 0.0901 |  | 0.0134 | 0.0387 | -0.0365 | 0.027 | -0.0368 | -0.0373 | -0.0494 |  | 0.0049 | -0.0585 | 0.545 | 0.555 | 1 | 0.979 | 0.614 | 0.407 | 1 | 0.917 | 0.321 | 0.957 | 0.989 | 0.603 | 0.864 | 0.285 | 0.988
Cc1c2c(nn1C)CSCc1cc(n(C)n1)CSc1cc(c3ccccc3c1)OCCCc1c(C(=O)O)n(C)c3c-2c(Cl)ccc13 [AZD5991] + CS(=O)(=O)CCNCc1ccc(-c2ccc3ncnc(Nc4ccc(OCc5cccc(F)c5)c(Cl)c4)c3c2)o1 [Lapatinib] (first compound max 1 µM, 7x7, partner max 10 µM) | -0.0746 | 0.0077 | 0.0287 | 0.0109 | 0.0313 | -0.0437 | 0.0617 | -0.028 | -0.0754 | 0.0676 | -0.0104 | 0.0061 | 0.0626 | -0.0134 | 0.0538 | 0.425 | 0.967 | 0.998 | 0.593 | 0.984 | 0.215 | 1 | 0.597 | 0.239 | 0.839 | 0.577 | 0.348 | 0.33 | 0.3 | 0.97
N#Cc1cnc(Nc2cc(NC[C@H]3CNCCO3)c(C(F)(F)F)cn2)cn1 [SRA737] + CCc1c2c(nc3ccc(O)cc13)-c1cc3c(c(=O)n1C2)COC(=O)[C@]3(O)CC [SN-38] (first compound max 10 µM, 7x7, partner max 0.3 µM) | 0.0746 | -0.0812 | -0.0648 | 0.0757 | 0.0297 | -0.0051 | 0.231 | -0.0562 | -0.11 | 0.0031 | 0.0169 | 0.0753 | 0.102 | -0.0264 | -0.129 | 0.748 | 0.732 | 0.96 | 0.952 | 0.518 | 0.362 | 0.935 | 0.865 | 0.695 |  | 0.973 | 0.616 | 0.812 | 0.544 | 0.941
N#Cc1cnc(Nc2cc(NC[C@H]3CNCCO3)c(C(F)(F)F)cn2)cn1 [SRA737] + O=c1[nH]cc(F)c(=O)[nH]1 [5-Fluorouracil] (first compound max 10 µM, 7x7, partner max 20 µM) | 0.0964 | 0.0586 | -0.0197 | -0.0058 | 0.053 | -0.029 | 0.0349 | -0.0165 | -0.0345 | 0.0518 | -0.0397 |  | -0.0371 | -0.0371 | -0.0214 | 0.803 | 0.628 | 0.382 | 0.431 | 0.319 | 0.122 | 0.302 | 0.663 | 0.416 | 0.869 | 0.683 | 0.392 | 0.668 | 0.198 | 0.847
